Several values for one entry are separate records, joined by “and”; a condition that tells them apart may be missing. Equal values may be shown once.
Key:
rice [1] = experiment: Rice seed treatment, 5000 square meter field plots, test No. 3, rice (Example 17); type: in vivo; details: 67 days; for Rice tiller dry weight / Rice tiller number: single 1 m^2 testing area
Procedure: (§1) A further test was carried out outdoors on loam soil on plots of about 5000 square meters surface.
(§2) After flooding each plot, seeds treated as in Test No. […] In all cases, the seen quantity was 150 kg./ha. 67 days after sowing, the results were gathered on 5 representative testing areas of 1 square meter each for each dosage level.

[2] = Acute oral toxicity, mice; details: mouse, in vivo
[3] = Acute oral toxicity, rats; details: rat, in vivo, per os
Echinocloa spp. [4] = experiment: Post emergence hothouse test No. 1 (Example 16); type: in vivo; details: 4, 6, and 8 kg./ha., 3 days; plants 3-4 cm. at treatment
Procedure: A set of boxes having a 1,000 cm^2 internal surface was prepared in a hothouse according to the method described in Example 9. The boxes were sowed with Echinocloa spp. (70 seeds per box). After saturation of the soil, and as soon as the infesting plants emerged from the soil, the boxes were flooded with a 7 cm. layer of water. When the plants reached a maximum height of 3-4 cm., the treatment was effected by spraying the flooding water surfaces with hydroacetone solutions according to the modalities employed in Example 9. 3 days after the treatment, the following results were observed: […]

rice [5] = experiment: Hothouse test on rice in flooded boxes, 27 days (Example 9a); type: in vivo, rice cv. RIBE
Source text: (§3) A test was arranged in a hothouse on a set of boxes having a 1,000 cm^2 internal surface. 18 Kg. of sieved rice field earth were put into each box. After leveling, the earth surfaces of each of a set of six boxes were uniformly sprayed with hydroacetone solutions containing, respectively, 0, 0.5, 0.75, 1, 1.25, and 1.5% of M3432. 20 Cc. of solution was sprayed into each box, corresponding to 0, 10, 15, 20, 25, and 30 kg./ha., respectively. Each box was flooded with a 10 cm. water layer measured from the earth surface. The sowing was carried out immediately afterwards with a pre-germinated (cv) RIBE rice seed, employing a quantity of 40 seeds per box.
During the test, the hothouse temperature ranged from +10°to +28°C. 27 Days after the treatment, all the rice plants were recovered from each box and subjected to biometric controls.

Barnyard grass = experiment: Rice seed treatment, 5000 square meter field plots, test No. 3, barnyard grass (Example 17); type: in vivo; details: 67 days; for Barnyard grass tiller number: single 1 m^2 testing area
Procedure: as §1, §2

Echinocloa spp. [6] = experiment: Activity on Echinocloa in flooded hothouse boxes, first sowing (Example 14); type: in vivo; details: 24 days
Procedure: as §3, with “20 Cc. of solution was sprayed into each box, corresponding to 0, 10, 15, 20, 25, and 30 kg./ha., respectively.” left out
The same method described in Example 9 was followed, the only variation being in sowing Echinocloa spp. (40 slightly pregerminated seeds per box) instead of rice.
24 Days after the treatment, the results were observed.

rice [7] = experiment: Hothouse test on rice in flooded culture, 66 days (Example 9b); type: in vivo, rice cv. RIBE
Source text: as §3
A second test was carried out in a hothouse, employing the identical method and under the identical conditions as in Example 9a.

CCC(C)N(C(=O)SCc1ccccc1)C(C)CC (stereo not shown) [M3432, S-benzyl-N,N-disec.butylthiocarbamate]
Rice tiller dry weight (rice [1]; 3.4 kg./ha.): 254.50 (g.)/m^2 and 331.10 (g.)/m^2 and 301.08 (g.)/m^2 and 373.50 (g.)/m^2 and 332.00 (g.)/m^2
Rice tiller number (rice [1]; 3.4 kg./ha.): 432 (no.)/m^2 and 430 (no.)/m^2 and 421 (no.)/m^2 and 417 (no.)/m^2 and 392 (no.)/m^2
Rice tiller dry weight, average on 5 testing areas (rice [1]; 3.6 kg./ha.): 318.44 (g.)/m^2
Rice tiller number, average on 5 testing areas (rice [1]; 3.6 kg./ha.): 418.4 (no.)/m^2
Rice tiller dry weight, average on 5 testing areas (rice [1]; 4.0 kg./ha.): 438.01 (g.)/m^2
Rice tiller number, average on 5 testing areas (rice [1]; 4.0 kg./ha.): 559.0 (no.)/m^2
Rice tiller dry weight (rice [1]; 4.0 kg./ha.): 473.98 (g.)/m^2 and 316.91 (g.)/m^2 and 484.50 (g.)/m^2 and 423.55 (g.)/m^2 and 491.10 (g.)/m^2
Rice tiller number (rice [1]; 4.0 kg./ha.): 599 (no.)/m^2 and 440 (no.)/m^2 and 687 (no.)/m^2 and 523 (no.)/m^2 and 546 (no.)/m^2
LD50 [2]: 8000 mg/kg
LD50 [3]: 10200 mg/kg
Shoot (Echinocloa spp. [4]): 0 cm.
Stand (Echinocloa spp. [4]): 0%
Main root (rice [5]; 10 kg./ha.): 4.82 cm.
Main root, % of control (rice [5]; 10 kg./ha.): 150 % of control
Secondary roots (rice [5]; 10 kg./ha.): 2.82 No.
Secondary roots, % of control (rice [5]; 10 kg./ha.): 127 % of control
Shoot (rice [5]; 10 kg./ha.): 11.70 cm.
Shoot, % of control (rice [5]; 10 kg./ha.): 198 % of control
Sprouted plants (rice [5]; 10 kg./ha.): 52.5%
Sprouted plants, % of control (rice [5]; 10 kg./ha.): 131 % of control
Main root (rice [5]; 15 kg./ha.): 4.06 cm.
Main root, % of control (rice [5]; 15 kg./ha.): 131 % of control
Secondary roots (rice [5]; 15 kg./ha.): 2.95 No.
Secondary roots, % of control (rice [5]; 15 kg./ha.): 133 % of control
Shoot (rice [5]; 15 kg./ha.): 11.99 cm.
Shoot, % of control (rice [5]; 15 kg./ha.): 203 % of control
Sprouted plants (rice [5]; 15 kg./ha.): 57.5%
Sprouted plants, % of control (rice [5]; 15 kg./ha.): 144 % of control
Main root (rice [5]; 20 kg./ha.): 8.29 cm.
Main root, % of control (rice [5]; 20 kg./ha.): 267 % of control
Secondary roots (rice [5]; 20 kg./ha.): 4.42 No.
Secondary roots, % of control (rice [5]; 20 kg./ha.): 199 % of control
Shoot (rice [5]; 20 kg./ha.): 12.15 cm.
Shoot, % of control (rice [5]; 20 kg./ha.): 205 % of control
Sprouted plants (rice [5]; 20 kg./ha.): 77.5%
Sprouted plants, % of control (rice [5]; 20 kg./ha.): 193 % of control
Main root (rice [5]; 25 kg./ha.): 6.77 cm.
Main root, % of control (rice [5]; 25 kg./ha.): 218 % of control
Secondary roots (rice [5]; 25 kg./ha.): 4.66 No.
Secondary roots, % of control (rice [5]; 25 kg./ha.): 210 % of control
Shoot (rice [5]; 25 kg./ha.): 16.77 cm.
Shoot, % of control (rice [5]; 25 kg./ha.): 283 % of control
Sprouted plants (rice [5]; 25 kg./ha.): 85.0%
Sprouted plants, % of control (rice [5]; 25 kg./ha.): 212 % of control
Main root (rice [5]; 30 kg./ha.): 8.84 cm.
Main root, % of control (rice [5]; 30 kg./ha.): 285 % of control
Secondary roots (rice [5]; 30 kg./ha.): 4.90 No.
Secondary roots, % of control (rice [5]; 30 kg./ha.): 220 % of control
Shoot (rice [5]; 30 kg./ha.): 14.59 cm.
Shoot, % of control (rice [5]; 30 kg./ha.): 246 % of control
Sprouted plants (rice [5]; 30 kg./ha.): 87.5%
Sprouted plants, % of control (rice [5]; 30 kg./ha.): 219 % of control
Barnyard grass tiller number (Barnyard grass; 3.4 kg./ha.): 0 (no.)/m^2
Barnyard grass tiller number, average on 5 testing areas (Barnyard grass; 3.6 kg./ha.): 0 (no.)/m^2
Barnyard grass tiller number, average on 5 testing areas (Barnyard grass; 4.0 kg./ha.): 0 (no.)/m^2
Barnyard grass tiller number (Barnyard grass; 4.0 kg./ha.): 0 (no.)/m^2
Shoot (Echinocloa spp. [6]; 2 kg./ha.): 8.5 cm.
Stand (Echinocloa spp. [6]; 2 kg./ha.): 2.5%
Shoot (Echinocloa spp. [6]; 4 kg./ha.): 0 cm.
Stand (Echinocloa spp. [6]; 4 kg./ha.): 0%
Shoot (Echinocloa spp. [6]; 6 kg./ha.): 0 cm.
Stand (Echinocloa spp. [6]; 6 kg./ha.): 0%
Shoot (Echinocloa spp. [6]; 8 kg./ha.): 0 cm.
Stand (Echinocloa spp. [6]; 8 kg./ha.): 0%
Main root (rice [7]; 10 kg./ha.): 12.64 cm.
Roots, weight on dry basis (rice [7]; 10 kg./ha.): 5.550 g. per 100 plant
Secondary roots (rice [7]; 10 kg./ha.): 12.20 No.
Shoot (rice [7]; 10 kg./ha.): 16.74 cm.
Shoot, weight on dry basis (rice [7]; 10 kg./ha.): 8.000 g. per 100 plant
Sprouted plants (rice [7]; 10 kg./ha.): 45.0%
Main root (rice [7]; 15 kg./ha.): 13.54 cm.
Roots, weight on dry basis (rice [7]; 15 kg./ha.): 6.800 g. per 100 plant
Secondary roots (rice [7]; 15 kg./ha.): 13.30 No.
Shoot (rice [7]; 15 kg./ha.): 18.16 cm.
Shoot, weight on dry basis (rice [7]; 15 kg./ha.): 11.800 g. per 100 plant
Sprouted plants (rice [7]; 15 kg./ha.): 45.0%
Main root (rice [7]; 20 kg./ha.): 17.16 cm.
Roots, weight on dry basis (rice [7]; 20 kg./ha.): 10.480 g. per 100 plant
Secondary roots (rice [7]; 20 kg./ha.): 21.00 No.
Shoot (rice [7]; 20 kg./ha.): 26.00 cm.
Shoot, weight on dry basis (rice [7]; 20 kg./ha.): 18.050 g. per 100 plant
Sprouted plants (rice [7]; 20 kg./ha.): 60.0%
Main root (rice [7]; 25 kg./ha.): 10.26 cm.
Roots, weight on dry basis (rice [7]; 25 kg./ha.): 4.250 g. per 100 plant
Secondary roots (rice [7]; 25 kg./ha.): 10.05 No.
Shoot (rice [7]; 25 kg./ha.): 15.00 cm.
Shoot, weight on dry basis (rice [7]; 25 kg./ha.): 6.875 g. per 100 plant
Sprouted plants (rice [7]; 25 kg./ha.): 40.0%
Main root (rice [7]; 30 kg./ha.): 8.21 cm.
Roots, weight on dry basis (rice [7]; 30 kg./ha.): 2.800 g. per 100 plant
Secondary roots (rice [7]; 30 kg./ha.): 8.00 No.
Shoot (rice [7]; 30 kg./ha.): 14.50 cm.
Shoot, weight on dry basis (rice [7]; 30 kg./ha.): 5.050 g. per 100 plant
Sprouted plants (rice [7]; 30 kg./ha.): 40.0%

Reference: US3930838A, “S-benzyl-N,N-disec-butylthiocarbamate and its use as a rice field herbicide and a rice growth stimulant” (priority 1970, dated 1976)
